Measured values as given in patent US20260327244A1, “PYRIDO[4,3-D]PYRIMIDINE COMPOUNDS” (Pfizer Inc., priority 2022, published 2026).

Key:
[1] = target: T1, wild-type (WT) KRAS (aa1-185) (Homo sapiens, UniProt P01116); experiment: KRAS Surface Plasma Resonance (SPR) binding assay, WT KRAS; details: SPR at 10 °C, geometric mean when tested more than once
T1 construct: wild-type (WT) KRAS (aa1-185)
Source text: (§1) No additional regeneration was used.
(§2) Compound dissociation was monitored for at least 3600 seconds. […] No additional regeneration was used.

G12D KRAS (aa1-185) = G12D KRAS (aa1-185) (Homo sapiens, UniProt P01116, G12D); experiment: biochemical;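 note: surface plasmon resonance at 10 °C, KRAS captured on a streptavidin chip in GDP-containing buffer, compound dilution series injected, blank streptavidin surface as reference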
Chain of G12D KRAS (aa1-185) (P01116 1-185 isoform P01116-2 G12D): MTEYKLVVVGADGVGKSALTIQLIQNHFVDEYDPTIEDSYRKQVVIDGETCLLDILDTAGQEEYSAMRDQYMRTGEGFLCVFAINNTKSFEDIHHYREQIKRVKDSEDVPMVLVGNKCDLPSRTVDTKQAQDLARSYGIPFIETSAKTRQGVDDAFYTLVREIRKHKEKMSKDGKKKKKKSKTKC
Protocol: (§3) SPR assay was used to measure the kinetic binding constant (KD) of Examples of the present invention.
(§4) The binding affinity and kinetics of Examples of the present invention were measured by Surface Plasmon Resonance (SPR) using Biacore 8K or 8K+ (Cytiva, Marlborough, MA) instruments. Recombinant, C-terminal site-specific biotinylated, wild-type (WT) KRAS (aa1-185), G12D KRAS (aa1-185), G12C KRAS (aa2-184), G12V KRAS (aa2-184), WT HRAS (aa2-184) and WT NRAS (aa2-185) proteins purified in presence of 1 μM GDP were used in these experiments. Binding measurements were performed parallelly in sets of either WT/G12D/G12C/G12V KRAS or WT K/H/N RAS proteins.
(§5) Biacore instrument was desorbed and docked with a Series S Sensor Chip SA. The proteins were diluted to 50 μg/mL with the assay buffer (50 mM HEPES, 150 mM NaCl, 10 μM GDP, 5 mM MgCl2, 0.5 mM TCEP, 5% glycerol, 0.02% Tween-20, 2% DMSO, pH 7.2) and immobilized at a flow rate of 3 μL/min at 10° C. with a contact time of 15 min. to capture ~3000-4000 RUs of proteins on the surface. The functionalized surface was then equilibrated with assay buffer for approximately 1 hour. Un-functionalized SA surfaces with no immobilized protein served as reference for binding kinetic analysis. Compound binding kinetics were measured in either multi-cycle or single-cycle kinetic format.
(§6) A 2-fold, 10-point serial dilution of test compounds was set-up in a 96-well microplate (Greiner; Cat #650101) with a top concentration of either 10 μM or 100 μM. Binding kinetics was measured at 10° C. by injecting serial dilution of compounds onto both reference and RAS immobilized channels at a flow rate of 100 μL/min and association time of 90 seconds. Compound dissociation was monitored for at least 400 seconds during each cycle. No additional regeneration was used. DMSO calibration curve was obtained before and after compound analysis by injecting 0-4% of DMSO in assay buffer. A suitable compound with known affinity and kinetics was tested once in every experiment as a positive control to assess activity of the captured protein on the surface.
(§7) A 3-fold, 6-point serial dilution of compounds was set-up in a deep 96-well microplate (Greiner Bio; Cat #780201) with the highest concentration of 1 μM (concentration range: 0.004-1 μM). Binding kinetics was measured at 10° C. by injecting serial dilutions of compounds in increasing order onto reference as well as RAS immobilized channels at a flow rate of 100 μL/min and association time of 120 seconds. Compound dissociation was monitored for at least 3600 seconds. Two buffer blanks were also run in a single-cycle kinetics format before the compound run for double referencing. No additional regeneration was used. DMSO calibration curve was obtained before and after compound analysis by injecting 0-4% of DMSO in the assay buffer. A suitable compound with known affinity and kinetics was tested once in every experiment as a positive control to assess activity of the captured protein on the surface.
(§8) Both MCK and SCK data were processed and analyzed using Biacore Insight evaluation software (Cytiva, Marlborough, MA)). […] The adequateness of the fit was judged by c^2 values and the randomness of residue distribution.
(§9) A geometric mean of binding constant KD was provided when an Example was tested more than once (n is testing replicate number).

G12C KRAS (aa2-184) = G12C KRAS (aa2-184) (Homo sapiens, UniProt P01116, G12C); experiment: biochemical
Chain of G12C KRAS (aa2-184) (P01116 2-184 isoform P01116-2 G12C): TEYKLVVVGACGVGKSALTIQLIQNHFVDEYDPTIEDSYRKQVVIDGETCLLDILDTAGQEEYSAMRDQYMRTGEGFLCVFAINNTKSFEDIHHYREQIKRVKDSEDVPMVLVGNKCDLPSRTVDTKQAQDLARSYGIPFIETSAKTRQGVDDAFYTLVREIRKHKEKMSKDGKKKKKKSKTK
Protocol: as §3, §4, §5, §6, §7, §8, §9

G12V KRAS (aa2-184) = G12V KRAS (aa2-184) (Homo sapiens, UniProt P01116, G12V); experiment: biochemical
Chain of G12V KRAS (aa2-184) (P01116 2-184 isoform P01116-2 G12V): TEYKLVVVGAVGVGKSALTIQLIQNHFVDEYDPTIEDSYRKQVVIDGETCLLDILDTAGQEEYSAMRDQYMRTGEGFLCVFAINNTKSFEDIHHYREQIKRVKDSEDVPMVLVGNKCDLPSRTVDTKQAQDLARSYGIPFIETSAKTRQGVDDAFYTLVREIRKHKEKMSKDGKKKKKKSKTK
Protocol: as §3, §4, §5, §6, §7, §8, §9

WT HRAS (aa2-184) = target: T2, WT HRAS (aa2-184) (Homo sapiens, UniProt P01112); experiment: SPR binding assay, WT HRAS; details: SPR at 10 °C, geometric mean when tested more than once
T2 construct: WT HRAS (aa2-184)
T2 sequence (P01112 2-184): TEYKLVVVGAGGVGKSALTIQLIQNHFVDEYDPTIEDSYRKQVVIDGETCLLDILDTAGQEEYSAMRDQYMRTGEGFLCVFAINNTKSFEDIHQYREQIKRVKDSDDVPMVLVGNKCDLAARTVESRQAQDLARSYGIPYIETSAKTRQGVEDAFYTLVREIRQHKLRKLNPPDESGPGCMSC
Source text: as §1, §2

[2] = Mouse PK study, unbound plasma exposure of Example 33 after oral dosing of female NSG mice; format: in vivo
Protocol: FIG. 1 provides mouse PK study results showing unbound plasma concentrations of Example 33 in female NSG mouse plasma after oral dosing of female NSG Mice at 100 mg/kg (n=3, mean+/−SD). The solution of Example 33 was prepared using a Pluronic-based formulation [2.5% (w/v) Pluronic F-68 (Poloxamer 188)], and the suspension arms of both Example 33 and Example 34 were prepared using a 0.5% (w/v) methylcellulose formulation.
The solution formulation of Example 33 was an aqueous solution with 2.5% (w/v) Pluronic F-68 (Poloxamer 188). The amorphous suspension formulations of Example 33 and Example 34 were made using in 0.5% (w/v) methylcellulose in water.

T1 sequence (P01116 1-185 isoform P01116-2): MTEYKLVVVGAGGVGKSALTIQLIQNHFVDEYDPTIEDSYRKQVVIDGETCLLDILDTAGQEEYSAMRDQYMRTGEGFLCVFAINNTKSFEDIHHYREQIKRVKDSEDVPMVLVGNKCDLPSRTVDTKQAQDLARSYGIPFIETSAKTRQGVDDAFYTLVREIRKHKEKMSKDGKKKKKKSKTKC

Row | Compound | Kd [1] [nM] | Kd (G12D KRAS (aa1-185)) [nM] | Kd (G12C KRAS (aa2-184)) [nM] | Kd (G12V KRAS (aa2-184)) [nM] | Kd (WT HRAS (aa2-184)) [nM] | Cav Fold Increase ([2]; suspension, relative to Example 33 suspension, 100 mg (active)/kg oral) | Cav, ss, u ([2]; unbound Example 33 in plasma, suspension (0.5% methylcellulose), single oral dose 100 mg (active)/kg) [nM]
1 | C#Cc1cccc2cc(O)cc(-c3ncc4c(N5CCN(C(C)=O)[C@@H](CC#N)C5)nc(OC[C@@]56CCCN5C[C@H](F)C6)nc4c3F)c12 [Example 4, {(2S)-1-acetyl-4-[7-(8-ethynyl-3-hydroxynaphthalen-1-yl)-8-fluoro-2-{[(2R,7aS)-2-fluorotetrahydro-1H-pyrrolizin-7a(5H)-yl]methoxy}pyrido[4,3-d]pyrimidin-4-yl]piperazin-2-yl}acetonitrile] | 0.308 | 14.1 | 1.94 | 3.69 |  |  | 
2 | C#Cc1cccc2cc(O)cc(-c3ncc4c(N5CC[C@@](C)(CC#N)C5)nc(OC[C@@]56CCCN5C[C@H](F)C6)nc4c3F)c12 [Example 5, {(3S)-1-[7-(8-ethynyl-3-hydroxynaphthalen-1-yl)-8-fluoro-2-{[(2R,7aS)-2-fluorotetrahydro-1H-pyrrolizin-7a(5H)-yl]methoxy}pyrido[4,3-d]pyrimidin-4-yl]-3-methylpyrrolidin-3-yl}acetonitrile] | 2.89 | 10.5 | 11.4 | 22.1 |  |  | 
3 | C#Cc1cccc2cc(O)cc(-c3ncc4c(N5CC[C@@H](CC#N)C5)nc(OC[C@@]56CCCN5C[C@H](F)C6)nc4c3F)c12 [Example 6, {(3S)-1-[7-(8-ethynyl-3-hydroxynaphthalen-1-yl)-8-fluoro-2-{[(2R,7aS)-2-fluorotetrahydro-1H-pyrrolizin-7a(5H)-yl]methoxy}pyrido[4,3-d]pyrimidin-4-yl]pyrrolidin-3-yl}acetonitrile] | 1.89 | 2.43 | 2.67 | 1.35 |  |  | 
4 | C#Cc1cccc2cc(O)cc(-c3ncc4c(N5CCC[C@@](C)(CC#N)C5)nc(OC[C@@]56CCCN5C[C@H](F)C6)nc4c3F)c12 [Example 8, {(3S)-1-[7-(8-ethynyl-3-hydroxynaphthalen-1-yl)-8-fluoro-2-{[(2R,7aS)-2-fluorotetrahydro-1H-pyrrolizin-7a(5H)-yl]methoxy}pyrido[4,3-d]pyrimidin-4-yl]-3-methylpiperidin-3-yl}acetonitrile] | 0.398 | 1.69 | 1.54 | 11.5 |  |  | 
5 | C#Cc1cccc2cc(O)cc(-c3ncc4c(N5C[C@@H]6C[C@H](C5)[C@H](O)C6)nc(OC[C@@]56CCCN5C[C@H](F)C6)nc4c3F)c12 [Example 9, (1R,5R,6R)-3-[7-(8-ethynyl-3-hydroxynaphthalen-1-yl)-8-fluoro-2-{[(2R,7aS)-2-fluorotetrahydro-1H-pyrrolizin-7a(5H)-yl]methoxy}pyrido[4,3-d]pyrimidin-4-yl]-3-azabicyclo[3.2.1]octan-6-ol] | 0.019 | 0.099 | 0.447 | 0.308 |  |  | 
6 | N#C[C@@H]1CCCN1c1nc(OC[C@@]23CCCN2C[C@H](F)C3)nc2c(F)c(-c3cc(O)cc4ccc(F)c(F)c34)ncc12 [Example 11, (2S)-1-[7-(7,8-difluoro-3-hydroxynaphthalen-1-yl)-8-fluoro-2-{[(2R,7aS)-2-fluorotetrahydro-1H-pyrrolizin-7a(5H)-yl]methoxy}pyrido[4,3-d]pyrimidin-4-yl]pyrrolidine-2-carbonitrile] | 19.7 | 23.6 | 38.9 | 98.7 |  |  | 
7 | C#Cc1c(F)ccc2cc(O)cc(-c3ncc4c(N5CCC[C@@H](CC#N)C5)nc(OC[C@@]56CCCN5C[C@H](F)C6)nc4c3F)c12 [Example 15, {(3S)-1-[7-(8-ethynyl-7-fluoro-3-hydroxynaphthalen-1-yl)-8-fluoro-2-{[(2R,7aS)-2-fluorotetrahydro-1H-pyrrolizin-7a(5H)-yl]methoxy}pyrido[4,3-d]pyrimidin-4-yl]piperidin-3-yl}acetonitrile] | 0.118 | 0.128 | 0.749 | 0.274 |  |  | 
8 | Oc1cc(-c2ncc3c(N4C[C@@H]5C[C@H](C4)[C@H](O)C5)nc(OC[C@@]45CCCN4C[C@H](F)C5)nc3c2F)c2ccccc2c1 [Example 17, (1R,5R,6R)-3-[8-fluoro-2-{[(2R,7aS)-2-fluorotetrahydro-1H-pyrrolizin-7a(5H)-yl]methoxy}-7-(3-hydroxynaphthalen-1-yl)pyrido[4,3-d]pyrimidin-4-yl]-3-azabicyclo[3.2.1]octan-6-ol] | 0.362 | 0.553 | 0.963 | 0.269 |  |  | 
9 | C#Cc1c(F)ccc2cc(O)cc(-c3nc4c5c(nc(OC[C@@]67CCCN6C[C@H](F)C7)nc5c3F)N3CCCC[C@H]3CO4)c12 [Example 23, 5-ethynyl-6-fluoro-4-[(8aS)-4-fluoro-2-{[(2R,7aS)-2-fluorotetrahydro-1H-pyrrolizin-7a(5H)-yl]methoxy}-8,8a,9,10,11,12-hexahydro-7-oxa-1,3,6,12a-tetraazabenzo[4,5]cyclohepta[1,2,3-de]naphthalen-5-yl]naphthalen-2-ol] |  |  |  |  | 473 |  | 
10 | C#Cc1c(F)ccc2cc(O)cc(-c3nc4c5c(nc(OC[C@@]67CCCN6C[C@H](F)C7)nc5c3F)N(C)CCO4)c12 [Example 24, 5-ethynyl-6-fluoro-4-(4-fluoro-2-{[(2R,7aS)-2-fluorotetrahydro-1H-pyrrolizin-7a(5H)-yl]methoxy}-10-methyl-9,10-dihydro-8H-7-oxa-1,3,6,10-tetraazacyclohepta[1,2,3-de]naphthalen-5-yl)naphthalen-2-ol] | 0.145 | 0.081 | 0.079 | 0.052 |  |  | 
11 | C#Cc1c(F)ccc2cc(O)cc(-c3nc4c5c(nc(OC[C@@]67CCCN6C[C@H](F)C7)nc5c3F)N(CCO)CCO4)c12 [Example 26, 5-ethynyl-6-fluoro-4-[4-fluoro-2-{[(2R,7aS)-2-fluorotetrahydro-1H-pyrrolizin-7a(5H)-yl]methoxy}-10-(2-hydroxyethyl)-9,10-dihydro-8H-7-oxa-1,3,6,10-tetraazacyclohepta[1,2,3-de]naphthalen-5-yl]naphthalen-2-ol] | 0.014 | 0.046 | 0.031 | 0.117 |  |  | 
12 | C#Cc1c(F)ccc2cc(O)cc(-c3nc4c5c(nc(OC[C@@]67CCCN6C[C@H](F)C7)nc5c3F)N3CCC[C@@H](O)[C@H]3CO4)c12 [Example 28, (8aR,9R)-5-(8-ethynyl-7-fluoro-3-hydroxynaphthalen-1-yl)-4-fluoro-2-{[(2R,7aS)-2-fluorotetrahydro-1H-pyrrolizin-7a(5H)-yl]methoxy}-8,8a,9,10,11,12-hexahydro-7-oxa-1,3,6,12a-tetraazabenzo[4,5]cyclohepta[1,2,3-de]naphthalen-9-ol] | 0.061 | 0.03 | 0.064 | 0.028 |  |  | 
13 | C#Cc1c(F)ccc2cccc(-c3nc4c5c(nc(OC[C@@]67CCCN6C[C@H](F)C7)nc5c3F)N3CCCC[C@H]3CO4)c12 [Example 29, (8aS)-5-(8-ethynyl-7-fluoronaphthalen-1-yl)-4-fluoro-2-{[(2R,7aS)-2-fluorotetrahydro-1H-pyrrolizin-7a(5H)-yl]methoxy}-8,8a,9,10,11,12-hexahydro-7-oxa-1,3,6,12a-tetraazabenzo[4,5]cyclohepta[1,2,3-de]naphthalene] | 5.75 | 1.55 | 3.65 | 1.48 |  |  | 
14 | C#Cc1c(F)ccc2cccc(-c3nc4c5c(nc(OC[C@@]67CCCN6C[C@H](F)C7)nc5c3F)N3C[C@@H](O)CC[C@H]3CO4)c12 [Example 30, (8aS,11S)-5-(8-ethynyl-7-fluoronaphthalen-1-yl)-4-fluoro-2-{[(2R,7aS)-2-fluorotetrahydro-1H-pyrrolizin-7a(5H)-yl]methoxy}-8,8a,9,10,11,12-hexahydro-7-oxa-1,3,6,12a-tetraazabenzo[4,5]cyclohepta[1,2,3-de]naphthalen-11-ol] | 2.58 | 0.25 | 1.1 | 0.24 |  |  | 
15 | C#Cc1c(F)c(F)cc2cc(O)cc(-c3nc4c5c(nc(OC[C@@]67CCCN6C[C@H](F)C7)nc5c3F)N3CCCC[C@H]3CO4)c12 [Example 32, 5-ethynyl-6,7-difluoro-4-[(8aS)-4-fluoro-2-{[(2R,7aS)-2-fluorotetrahydro-1H-pyrrolizin-7a(5H)-yl]methoxy}-8,8a,9,10,11,12-hexahydro-7-oxa-1,3,6,12a-tetraazabenzo[4,5]cyclohepta[1,2,3-de]naphthalen-5-yl]naphthalen-2-ol] | 0.009 | 0.004 | 0.004 | 0.004 |  |  | 
16 | C#Cc1c(F)ccc2cc(OCOP(=O)(O)O)cc(-c3nc4c5c(nc(OC[C@@]67CCCN6C[C@H](F)C7)nc5c3F)N3CCCOC[C@H]3CO4)c12 [Example 34, ({5-ethynyl-6-fluoro-4-[(8aS)-4-fluoro-2-{[(2R,7aS)-2-fluorotetrahydro-1H-pyrrolizin-7a(5H)-yl]methoxy}-8a,9,12,13-tetrahydro-8H,11H-7,10-dioxa-1,3,6,13a-tetraazanaphtho[1,8-ab]heptalen-5-yl]naphthalen-2-yl}oxy)methyl dihydrogen phosphate] |  |  |  |  |  | 10.4 | 3.84
